Where two headings read alike, the source gives them in different places.
Tests used:
[1] = test system: angiogenesis in the cornea; experiment: Drug-containing polymers implanted alone in the cornea; conditions: polymer without tumor in the cornea
[2] = test system: tumor-induced angiogenesis (VX2 carcinoma) in the rabbit cornea; experiment: Rabbit cornea angiogenesis assay with VX2 carcinoma and controlled release polymers; conditions: for factor of decrease of tumor-induced angiogenesis: versus empty polymer
[3] = test system: angiogenesis in the cornea; conditions: rabbit, in vivo

Row | Molecule | angiogenesis induced by polymer implanted alone [1] | factor of decrease of tumor-induced angiogenesis ([2]; 7 days after implantation) | factor of decrease of tumor-induced angiogenesis ([2]; 14 days after implantation) | factor of decrease of tumor-induced angiogenesis ([2]; 21 days after implantation) | inhibition of tumor angiogenesis (angiogenesis index) ([2]; controlled release from EVAc polymer, 7, 14 and 21 days, P<0.05) | angiogenesis induced by polymer implanted alone [3]
1 | CN(C)c1ccc(O)c2c1C[C@H]1C[C@H]3[C@H](N(C)C)C(O)=C(C(N)=O)C(=O)[C@@]3(O)C(O)=C1C2=O [minocycline] | did not induce angiogenesis | 4.5 | 4.4 | 2.9 | – | –
2 | CC(=O)OCC(=O)[C@@]1(O)CC[C@H]2[C@@H]3CCC4=CC(=O)CC[C@]4(C)[C@H]3C(=O)C[C@@]21C [cortisone, cortisone acetate] | – | – | – | – | significantly inhibited | did not induce angiogenesis
3 | heparin | promote a mild angiogenic response | – | – | – | – | –

Reference: patent US6482810B1, “Antibiotic composition for inhibition of angiogenesis” (priority 1991, dated 2002)
